In ChEMBL document CHEMBL1156560, “4-(1,1-Dioxo-1,4-dihydro-1lambda6-benzo[1,4]thiazin-3-yl)-5-hydroxy-2H-pyridazin-3-ones as potent inhibitors of HCV NS5B polymerase” (Bioorg Med Chem Lett, 2008):

Columns and labels:
[1] = Apparent permeability from apical to basolateral side in human Caco-2 cells at 10 uM; format: ADME, cell-based
[2] = Oral bioavailability in cynomolgus monkey at 1 mg/kg; format: ADME, organism-based, Macaca fascicularis; conditions: in vivo
[3] = Metabolic stability in monkey liver microsomes; format: ADME, Macaca mulatta, Microsome; conditions: rhesus monkey
[4] = test system: Hepatitis C virus; experiment: Antiviral activity against HCV 1b BK delta21 in Huh7/C24 cells after 72 hrs by replicon assay; format: functional, organism-based, Hepacivirus hominis; conditions: genotype 1b BK, Huh7/C24, 72 h
[5] = test system: Hepatitis C virus; experiment: Inhibition of HCV 1b BK delta21 NS5B delta21 polymerase; design: species or system Hepatitis C virus subtype 1b
[6] = Cytotoxicity against human Huh7/C24 cells after 72 hrs; format: cell-based, Huh-7
[7] = Metabolic stability in human liver microsomes assessed as half life; format: ADME, Microsome

| SMILES | Papp A→B at 10 µM [1] | bioavailability [2] | half-life [3] | EC50 [4] | IC50 [5] | CC50 at 72 h [6] | half-life [7] |
| --- | --- | --- | --- | --- | --- | --- | --- |
| CC(C)CCn1nc(-c2cccs2)c(O)c(C2=NS(=O)(=O)c3cc(N(C)S(C)(=O)=O)ccc3N2)c1=O | 0.2 ×10⁻⁶ cm/s | 12% | – | – | – | – | – |
| CC(C)CCn1nc(-c2cccs2)c(O)c(C2=Nc3ccc(NS(C)(=O)=O)cc3S(=O)(=O)N2)c1=O | 0.02 ×10⁻⁶ cm/s | – | – | – | – | – | – |
| Cc1ccc(-c2nn(Cc3ccccc3)c(=O)c(C3=Nc4ccccc4S(=O)(=O)N3)c2O)s1 | 1.3 ×10⁻⁶ cm/s | 33% | > 60 min | – | – | – | – |
| CC(C)CCn1c(=O)c(C2=Nc3ccc(NS(C)(=O)=O)cc3S(=O)(=O)N2)c(O)c2cccn21 | – | 0% | – | 8.5 nM | < 10 nM | – | – |
| CS(=O)(=O)Nc1ccc2c(c1)S(=O)(=O)C=C(c1c(O)c(-c3cccs3)nn(Cc3ccccc3)c1=O)N2 | – | – | – | 36 nM | 18 nM | > 1000 nM | > 60 min |
| CC(C)CCn1nc(-c2cccs2)c(O)c(C2=CS(=O)(=O)c3cc(NS(C)(=O)=O)ccc3N2)c1=O | 0.012 ×10⁻⁶ cm/s | 4% | 20 min | 1.1 nM | < 10 nM | > 1000 nM | > 60 min |
| CC(C)CCn1nc(-c2ccccc2)c(O)c(C2=CS(=O)(=O)c3cc(NS(C)(=O)=O)ccc3N2)c1=O | 0.019 ×10⁻⁶ cm/s | 1% | 34 min | 190 nM | 250 nM | > 33000 nM | 36 min |
| CC(C)CCn1nc(-c2cccs2)c(O)c(C2=CS(=O)(=O)c3cc(N(C)S(C)(=O)=O)ccc3N2)c1=O | – | – | – | – | 1600 nM | – | – |
| CCC(C)(C)CCn1nc(-c2cccs2)c(O)c(C2=CS(=O)(=O)c3cc(NS(C)(=O)=O)ccc3N2)c1=O | – | – | – | 2.7 nM | < 10 nM | > 1000 nM | 30 min |
| CS(=O)(=O)Nc1ccc2c(c1)S(=O)(=O)C=C(c1c(O)c(-c3cccs3)nn(CC3CCCC3)c1=O)N2 | – | – | – | 15 nM | 39 nM | > 1000 nM | 43 min |
| CS(=O)(=O)Nc1ccc2c(c1)S(=O)(=O)C=C(c1c(O)c(-c3cccs3)nn(CC3CC3)c1=O)N2 | – | – | – | 3.5 nM | 15 nM | > 1000 nM | > 60 min |
| CC(C)(C)CCn1c(=O)c(C2=CS(=O)(=O)c3cc(NS(C)(=O)=O)ccc3N2)c(O)c2cccn21 | 0.3 ×10⁻⁶ cm/s | 1% | 4.7 min | 1.5 nM | < 10 nM | > 1000 nM | 30 min |
| Cc1ccc(-c2nn(Cc3ccccc3)c(=O)c(C3=CS(=O)(=O)c4ccccc4N3)c2O)s1 | 0.3 ×10⁻⁶ cm/s | 13% | 37 min | – | 12000 nM | – | – |
| Cc1ccc(-c2nn(Cc3ccccc3)c(=O)c(C3=CS(=O)(=O)c4cc(N(C)S(C)(=O)=O)ccc4N3)c2O)s1 | – | – | – | – | 9000 nM | – | > 60 min |
| Cc1ccc(-c2nn(Cc3ccccc3)c(=O)c(C3=CS(=O)(=O)c4cc(NS(C)(=O)=O)ccc4N3)c2O)s1 | – | – | – | – | 1600 nM | – | > 60 min |
| CC(C)CCn1c(=O)c(C2=CS(=O)(=O)c3cc(NS(C)(=O)=O)ccc3N2)c(O)c2cccn21 | 0.027 ×10⁻⁶ cm/s | – | – | 13 nM | 27 nM | > 1000 nM | > 60 min |
| CC(C)CCn1c(=O)c(C2=CS(=O)(=O)c3cc(N(C)S(C)(=O)=O)ccc3N2)c(O)c2cccn21 | 0.012 ×10⁻⁶ cm/s | 4% | 20 min | 940 nM | 440 nM | > 33000 nM | > 60 min |
